Laboratory results from patent publication US20140116434A1, “Dry Powder Inhaler Compositions” (GLAXO GROUP LIMITED, priority 2011, published 2014).

Tests used:
[1] = format: in vivo, animal and human
asthmatic patients = assay: clinical pharmacology studies of the compound of formula (II) in asthmatic patients; format: in vivo, human; conditions: all doses tested
Excerpt: The compound of formula (II) as the α-phenylcinnamate salt and the triphenylacetate salt has been studied in a number of clinical pharmacology studies, including single- and repeat-dose studies. In addition, these studies have evaluated the compound of formula (II) formulated with lactose and either cellobiose octaacetate or magnesium stearate.

muscarinic receptor = muscarinic receptor antagonism, studies in animal models and in humans
human M3 receptor = human M3 receptor (Homo sapiens, UniProt P20309); assay: reversibility at the human M3 receptor in vitro; format: binding
human M3 receptor, sequence (P20309 whole entry): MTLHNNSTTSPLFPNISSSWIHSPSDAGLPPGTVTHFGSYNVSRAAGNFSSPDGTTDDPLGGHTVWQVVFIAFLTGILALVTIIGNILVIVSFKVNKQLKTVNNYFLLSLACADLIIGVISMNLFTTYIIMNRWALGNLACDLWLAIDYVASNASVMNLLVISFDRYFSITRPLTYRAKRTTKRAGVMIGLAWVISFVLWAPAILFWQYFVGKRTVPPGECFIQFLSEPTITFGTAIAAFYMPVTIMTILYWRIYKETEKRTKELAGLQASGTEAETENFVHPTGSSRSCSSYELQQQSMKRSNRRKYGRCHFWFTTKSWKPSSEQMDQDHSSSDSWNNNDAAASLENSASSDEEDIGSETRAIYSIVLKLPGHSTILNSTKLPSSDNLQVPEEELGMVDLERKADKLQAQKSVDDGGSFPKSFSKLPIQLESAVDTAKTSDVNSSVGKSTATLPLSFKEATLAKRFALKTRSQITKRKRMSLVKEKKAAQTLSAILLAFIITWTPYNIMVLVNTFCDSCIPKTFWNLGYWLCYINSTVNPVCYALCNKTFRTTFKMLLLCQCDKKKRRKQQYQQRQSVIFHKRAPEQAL

pre-clinical models = assay: duration of action in vivo, administered directly to the lungs in pre-clinical models; design: species or system animals
[2] = system: healthy volunteers and COPD patients; assay: clinical pharmacology studies, single inhaled doses, plethysmography (sGaw, Raw) and spirometry (FEV1); format: in vivo, human
Description: Several clinical pharmacology studies have been conducted using 4-[hydroxy(diphenyl)methyl]-1-{2-[(phenylmethyl)oxy]ethyl}-1-azoniabicyclo[2.2.2]octane bromide in both healthy volunteers and COPD patients to investigate the safety, tolerability, pharmacokinetics and pharmacodynamics of this compound. The bronchodilatory effects and duration of action of single inhaled doses of this compound as measured by plethysmography (sGaw, Raw) and spirometry (FEV1) were assessed in some of the above noted studies.

subjects with COPD [3] = assay: 14-day once-daily study in subjects with COPD; format: in vivo, human; conditions: 14-day treatment period
Excerpt: In addition, this study confirmed that 4-[hydroxy(diphenyl)methyl]-1-{2-[(phenylmethyl)oxy]ethyl}-1-azoniabicyclo[2.2.2]octane bromide has a once-daily profile.

subjects with COPD [4] = assay: 28 day once-daily dry powder inhaler study in subjects with COPD; format: in vivo, human; conditions: 125, 250 and 500 mcg once-daily, 28 day period
Excerpt: A further study evaluated the efficacy and safety of three doses (125 mcg, 250 mcg and 500 mcg) of 4-[hydroxy(diphenyl)methyl]-1-{2-[(phenylmethyl)oxy]ethyl}-1-azoniabicyclo[2.2.2]octane bromide administered once-daily via a dry powder inhaler over a 28 day period in subjects with COPD.

[5] = system: healthy Japanese volunteers; assay: single inhaled dose four-way crossover study, monotherapies and combination; format: in vivo, human; conditions: single inhaled doses, 500 mcg and/or 50 mcg
Excerpt: A combination of 4-[hydroxy(diphenyl)methyl]-1-{2-[(phenylmethyl)oxy]ethyl}-1-azoniabicyclo[2.2.2]octane bromide and the compound of formula (II) as the triphenylacetate salt has been administered to sixteen healthy Japanese volunteers, aged 20 to 65, as part of a clinical trial to assess the safety, tolerability, pharmacokinetics and pharmacodynamics of single inhaled doses of 4-[hydroxy(diphenyl)methyl]-1-{2-[(phenylmethyl)oxy]ethyl}-1-azoniabicyclo[2.2.2]octane bromide and the compound of formula (II) triphenylacetate as monotherapies and in combination. […]
This clinical study in healthy Japanese volunteers, evaluated the effect of 4-[hydroxy(diphenyl)methyl]-1-{2-[(phenylmethyl)oxy]ethyl}-1-azoniabicyclo[2.2.2]octane bromide (500 mcg dose) and the compound of formula (II) triphenylacetate (50 mcg dose) administered as single inhaled doses and concurrently (4-[hydroxy(diphenyl)methyl]-1-{2-[(phenylmethyl)oxy]ethyl}-1-azoniabicyclo[2.2.2]octane bromide (500 mcg dose) and the compound of formula (II) triphenylacetate (50 mcg dose)) on lung function parameters. […] In this study FEV1 values were recorded. […]

[6] = system: subjects with persistent uncontrolled asthma; assay: 8 week randomised, double-blind, placebo-controlled study in persistent uncontrolled asthma; format: in vivo, human
Description: In one such study, the safety and efficacy of four doses of 6α,9α-difluoro-17α-[(2-furanylcarbonyl)oxy]-11β-hydroxy-16α-methyl-3-oxo-androsta-1,4-diene-17β-carbothioic acid S-fluoromethyl ester (fluticasone furoate) in subjects with persistent uncontrolled asthma were evaluated. In this study, which was a randomised, double-blind, placebo-controlled, parallel group study, 598 patients received one of six treatments: fluticasone furoate (25, 50, 100 or 200 mcg) once daily, fluticasone propionate 100 mcg twice daily or placebo for 8 weeks. The primary endpoint was change from baseline in trough (pre-dose) forced expiratory volume in 1 second (FEV1) at Week 8. […] This study supports the use of fluticasone furoate (100 or 200 mcg once-daily) for the treatment of persistant uncontrolled asthma.

SMILES: OCc1cc([C@@H](O)CNCCCCCCOCCOCc2c(Cl)cccc2Cl)ccc1O [compound of formula (II), 4-{(1R)-2-[(6-{2-[(2,6-dichlorobenzyl)oxy]ethoxy}hexyl)amino]-1-hydroxyethyl}-2-(hydroxymethyl)phenol]
- bronchodilation ([1]; animal and human studies): sustained bronchodilation over a 24 hour period
- safety profile ([1]; in vivo): favourable safety profile
- trough (24-hour) FEV1 compared to placebo (asthmatic patients): statistically and clinically significant improvement

SMILES: OC(c1ccccc1)(c1ccccc1)C12CC[N+](CCOCc3ccccc3)(CC1)CC2.[Br-] [4-[hydroxy(diphenyl)methyl]-1-{2-[(phenylmethyl)oxy]ethyl}-1-azoniabicyclo[2.2.2]octane bromide]
- muscarinic receptor antagonist profile (muscarinic receptor): long acting high-affinity pan-active muscarinic receptor antagonist
- reversibility at the human M3 receptor (human M3 receptor): slow reversibility
- duration of action in vivo (pre-clinical models): long duration of action
- bronchodilatory effects (sGaw, Raw, FEV1) [2]: clinically relevant bronchodilation
- duration of action [2]: 24 h
- pulmonary function compared to placebo (subjects with COPD [3]; 62.5, 125, 250, 500 and 1000 mcg once-daily): statistically significant improvements
- trough FEV1 compared with open label tiotropium active control (18 mcg once-daily) (subjects with COPD [3]; all once-daily doses): numerically greater improvement
- bronchodilation (subjects with COPD [4]): significant bronchodilation over twenty four hours
- safety (subjects with COPD [4]): safe
- tolerability ([5]; dry powder inhalers): well tolerated
- FEV1 values compared with placebo [5]: higher

SMILES: C[C@@H]1C[C@H]2[C@@H]3C[C@H](F)C4=CC(=O)C=C[C@]4(C)[C@@]3(F)[C@@H](O)C[C@]2(C)[C@@]1(OC(=O)c1ccco1)C(=O)SCF [fluticasone furoate, 6α,9α-difluoro-17α-[(2-furanylcarbonyl)oxy]-11β-hydroxy-16α-methyl-3-oxo-androsta-1,4-diene-17β-carbothioic acid S-fluoromethyl ester]
- change from baseline in trough FEV1 relative to placebo ([6]; 50-200 mcg once daily, Week 8, p<0.05): significantly greater increases
- increase in trough FEV1 from baseline relative to placebo ([6]; 100 mcg and 200 mcg once daily, Week 8): > 200 mL
